Experimental data published in paper PMC8149661, “Small-molecule inhibition of Lats kinases may promote Yap-dependent proliferation in postmitotic mammalian tissues” (Nature Communications, 2021).

How the values were obtained:
Assay in all cases: biochemical
NDR1 = molecular target: T1, NDR1 (Homo sapiens, UniProt Q15208); set-up: functional kinase inhibition IC50 (Reaction Biology)
T1 construct: gene STK38

PKA = molecular target: T2, PKA (Homo sapiens, UniProt P17612); set-up: functional kinase inhibition IC50 (Reaction Biology)
T2 construct: gene PRKACA

PKCepsilon = molecular target: T3, PKCepsilon (Homo sapiens, UniProt Q02156); set-up: functional kinase inhibition IC50 (Reaction Biology)
T3 construct: gene PRKCE

ROCK1 [1] = molecular target: T4, ROCK1 (Homo sapiens, UniProt Q13464); set-up: functional kinase inhibition IC50 (Reaction Biology)
DYRK1B = DYRK1B (Homo sapiens, UniProt Q9Y463); details: read-out: % inhibition
BMP2K = BMP2K (Homo sapiens, UniProt Q9NSY1); details: read-out: % inhibition
CDC42BPA = CDC42BPA (Homo sapiens, UniProt Q5VT25); details: read-out: % inhibition
CDC42BPG = CDC42BPG (Homo sapiens, UniProt Q6DT37); details: read-out: % inhibition
CDC7 = CDC7 (Homo sapiens, UniProt O00311); details: read-out: % inhibition
CDK19 = CDK19 (Homo sapiens, UniProt Q9BWU1); details: read-out: % inhibition
CDK8 = CDK8 (Homo sapiens, UniProt P49336); details: read-out: % inhibition
CLK1 = CLK1 (Homo sapiens, UniProt P49759); details: read-out: % inhibition
CLK2 = CLK2 (Homo sapiens, UniProt P49760); details: read-out: % inhibition
CLK4 = CLK4 (Homo sapiens, UniProt Q9HAZ1); details: read-out: % inhibition
DAPK3 = DAPK3 (Homo sapiens, UniProt O43293); details: read-out: % inhibition
DMPK = DMPK (Homo sapiens, UniProt Q09013); details: read-out: % inhibition
DYRK1A = DYRK1A (Homo sapiens, UniProt Q13627); details: read-out: % inhibition
GSK3B = GSK3B (Homo sapiens, UniProt P49841); details: read-out: % inhibition
HIPK1 = HIPK1 (Homo sapiens, UniProt Q86Z02); details: read-out: % inhibition
HIPK2 = HIPK2 (Homo sapiens, UniProt Q9H2X6); details: read-out: % inhibition
HIPK3 = HIPK3 (Homo sapiens, UniProt Q9H422); details: read-out: % inhibition
LRRK2 = LRRK2 (Homo sapiens, UniProt Q5S007); details: read-out: % inhibition
MAP3K7 = MAP3K7 (Homo sapiens, UniProt O43318); details: read-out: % inhibition
MAP4K4 = MAP4K4 (Homo sapiens, UniProt O95819); details: read-out: % inhibition
PAK4 = PAK4 (Homo sapiens, UniProt O96013); details: read-out: % inhibition
PASK = PASK (Homo sapiens, UniProt Q96RG2); details: read-out: % inhibition
PKN1 = PKN1 (Homo sapiens, UniProt Q16512); details: read-out: % inhibition
PKN2 = PKN2 (Homo sapiens, UniProt Q16513); details: read-out: % inhibition
PRKACB = PRKACB (Homo sapiens, UniProt P22694); details: read-out: % inhibition
PRKCD = PRKCD (Homo sapiens, UniProt Q05655); details: read-out: % inhibition
PRKCH = PRKCH (Homo sapiens, UniProt P24723); details: read-out: % inhibition
PRKCQ = PRKCQ (Homo sapiens, UniProt Q04759); details: read-out: % inhibition
PRKG2 = PRKG2 (Homo sapiens, UniProt Q13237); details: read-out: % inhibition
PRKX = PRKX (Homo sapiens, UniProt P51817); details: read-out: % inhibition
ROCK1 [2] = molecular target: T4, ROCK1; details: read-out: % inhibition
ROCK2 = ROCK2 (Homo sapiens, UniProt O75116); details: read-out: % inhibition
TAOK1 = TAOK1 (Homo sapiens, UniProt Q7L7X3); details: read-out: % inhibition
TGFBR2 = TGFBR2 (Homo sapiens, UniProt P37173); details: read-out: % inhibition

T4 sequence (Q13464 whole entry): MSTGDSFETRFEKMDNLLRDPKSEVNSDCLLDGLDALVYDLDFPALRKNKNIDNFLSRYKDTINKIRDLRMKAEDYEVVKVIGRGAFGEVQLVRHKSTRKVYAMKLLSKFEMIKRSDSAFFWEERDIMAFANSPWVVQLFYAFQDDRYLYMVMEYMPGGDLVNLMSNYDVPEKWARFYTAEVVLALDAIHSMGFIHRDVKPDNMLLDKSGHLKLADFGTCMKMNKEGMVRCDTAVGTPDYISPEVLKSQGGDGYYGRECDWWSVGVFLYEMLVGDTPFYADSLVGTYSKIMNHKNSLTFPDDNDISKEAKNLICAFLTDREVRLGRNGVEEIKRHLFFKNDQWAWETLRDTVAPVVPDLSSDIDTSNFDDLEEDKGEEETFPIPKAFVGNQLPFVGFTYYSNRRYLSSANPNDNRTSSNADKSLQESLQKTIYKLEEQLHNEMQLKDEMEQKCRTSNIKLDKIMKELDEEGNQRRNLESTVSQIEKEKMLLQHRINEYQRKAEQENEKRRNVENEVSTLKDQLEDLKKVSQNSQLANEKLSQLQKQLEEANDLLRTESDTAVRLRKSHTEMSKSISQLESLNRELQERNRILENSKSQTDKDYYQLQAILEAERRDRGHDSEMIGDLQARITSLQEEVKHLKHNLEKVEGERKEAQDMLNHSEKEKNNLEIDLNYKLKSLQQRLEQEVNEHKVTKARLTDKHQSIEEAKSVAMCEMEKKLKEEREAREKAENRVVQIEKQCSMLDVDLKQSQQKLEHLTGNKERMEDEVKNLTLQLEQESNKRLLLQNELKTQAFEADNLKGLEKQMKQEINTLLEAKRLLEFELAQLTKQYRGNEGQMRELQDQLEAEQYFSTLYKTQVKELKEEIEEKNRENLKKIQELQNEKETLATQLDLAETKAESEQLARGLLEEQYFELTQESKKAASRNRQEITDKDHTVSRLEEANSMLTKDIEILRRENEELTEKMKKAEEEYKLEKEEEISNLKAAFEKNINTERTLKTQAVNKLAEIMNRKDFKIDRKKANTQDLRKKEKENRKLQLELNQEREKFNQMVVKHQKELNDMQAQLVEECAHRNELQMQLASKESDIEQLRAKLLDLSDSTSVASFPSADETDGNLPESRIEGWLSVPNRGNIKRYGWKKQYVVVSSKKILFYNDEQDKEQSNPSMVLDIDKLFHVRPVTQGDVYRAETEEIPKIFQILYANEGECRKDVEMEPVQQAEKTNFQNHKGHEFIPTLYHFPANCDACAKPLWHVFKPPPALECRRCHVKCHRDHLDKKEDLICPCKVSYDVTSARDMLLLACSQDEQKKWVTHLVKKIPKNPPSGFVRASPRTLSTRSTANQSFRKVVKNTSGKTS
Chain of PRKCQ (Q04759 whole entry): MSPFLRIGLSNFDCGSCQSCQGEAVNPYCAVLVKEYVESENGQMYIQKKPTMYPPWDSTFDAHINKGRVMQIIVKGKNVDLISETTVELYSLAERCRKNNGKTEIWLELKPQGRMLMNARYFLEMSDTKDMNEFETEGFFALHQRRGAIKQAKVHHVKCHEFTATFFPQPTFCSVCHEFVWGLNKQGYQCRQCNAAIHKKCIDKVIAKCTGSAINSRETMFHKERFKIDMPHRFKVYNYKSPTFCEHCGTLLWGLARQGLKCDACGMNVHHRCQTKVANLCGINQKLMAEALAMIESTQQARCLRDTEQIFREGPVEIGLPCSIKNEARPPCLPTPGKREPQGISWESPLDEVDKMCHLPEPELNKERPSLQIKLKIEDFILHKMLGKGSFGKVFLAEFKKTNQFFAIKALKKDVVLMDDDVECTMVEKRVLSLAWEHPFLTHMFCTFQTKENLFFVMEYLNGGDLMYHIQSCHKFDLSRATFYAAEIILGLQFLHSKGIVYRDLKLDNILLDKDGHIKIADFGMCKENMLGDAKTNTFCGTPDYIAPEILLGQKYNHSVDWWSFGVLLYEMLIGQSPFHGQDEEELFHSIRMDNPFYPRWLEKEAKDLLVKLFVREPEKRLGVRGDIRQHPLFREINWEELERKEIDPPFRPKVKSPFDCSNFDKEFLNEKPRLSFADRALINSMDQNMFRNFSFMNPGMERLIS
Chain of CDC42BPA (Q5VT25 whole entry): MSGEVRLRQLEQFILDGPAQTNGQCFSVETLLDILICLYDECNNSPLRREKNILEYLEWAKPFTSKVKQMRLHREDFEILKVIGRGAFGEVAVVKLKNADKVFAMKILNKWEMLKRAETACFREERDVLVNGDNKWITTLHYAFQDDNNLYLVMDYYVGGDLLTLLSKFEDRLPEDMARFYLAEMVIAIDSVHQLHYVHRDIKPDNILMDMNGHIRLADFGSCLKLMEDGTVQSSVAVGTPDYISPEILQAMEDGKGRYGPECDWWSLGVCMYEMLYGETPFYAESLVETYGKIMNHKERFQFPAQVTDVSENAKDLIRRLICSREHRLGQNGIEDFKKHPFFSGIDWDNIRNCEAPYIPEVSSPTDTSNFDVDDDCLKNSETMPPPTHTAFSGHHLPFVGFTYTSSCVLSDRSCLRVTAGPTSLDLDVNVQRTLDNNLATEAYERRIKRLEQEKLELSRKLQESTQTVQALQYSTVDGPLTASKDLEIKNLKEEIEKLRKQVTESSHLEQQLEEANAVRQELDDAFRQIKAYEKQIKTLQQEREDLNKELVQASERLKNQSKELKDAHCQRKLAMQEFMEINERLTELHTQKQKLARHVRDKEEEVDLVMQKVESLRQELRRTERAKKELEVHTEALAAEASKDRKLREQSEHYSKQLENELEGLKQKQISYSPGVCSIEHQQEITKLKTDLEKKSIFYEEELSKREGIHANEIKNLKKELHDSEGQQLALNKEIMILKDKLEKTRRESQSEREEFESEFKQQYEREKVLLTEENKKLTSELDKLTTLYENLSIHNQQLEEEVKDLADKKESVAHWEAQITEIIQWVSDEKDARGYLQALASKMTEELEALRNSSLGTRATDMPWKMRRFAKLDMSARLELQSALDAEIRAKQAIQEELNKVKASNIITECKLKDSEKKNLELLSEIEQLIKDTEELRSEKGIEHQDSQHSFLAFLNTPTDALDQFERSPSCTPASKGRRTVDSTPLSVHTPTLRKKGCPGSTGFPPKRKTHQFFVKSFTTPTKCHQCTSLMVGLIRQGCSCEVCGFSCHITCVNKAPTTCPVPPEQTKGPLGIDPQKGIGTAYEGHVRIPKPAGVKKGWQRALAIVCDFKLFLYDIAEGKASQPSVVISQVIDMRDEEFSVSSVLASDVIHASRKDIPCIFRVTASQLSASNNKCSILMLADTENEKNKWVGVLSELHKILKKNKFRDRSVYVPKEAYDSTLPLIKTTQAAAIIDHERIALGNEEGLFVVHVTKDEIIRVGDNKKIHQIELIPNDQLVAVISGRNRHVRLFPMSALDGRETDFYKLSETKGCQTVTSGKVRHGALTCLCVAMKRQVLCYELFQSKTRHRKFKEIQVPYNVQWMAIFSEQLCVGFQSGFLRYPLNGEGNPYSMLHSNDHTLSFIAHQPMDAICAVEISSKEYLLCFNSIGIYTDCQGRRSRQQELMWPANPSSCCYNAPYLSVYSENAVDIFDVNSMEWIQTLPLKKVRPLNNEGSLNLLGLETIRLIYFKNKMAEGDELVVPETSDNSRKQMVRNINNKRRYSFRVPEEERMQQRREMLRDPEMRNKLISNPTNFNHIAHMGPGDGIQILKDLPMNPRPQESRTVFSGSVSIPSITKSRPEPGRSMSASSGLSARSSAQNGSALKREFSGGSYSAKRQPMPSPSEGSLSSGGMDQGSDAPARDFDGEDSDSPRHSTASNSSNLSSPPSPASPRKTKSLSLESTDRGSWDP
Chain of DAPK3 (O43293 whole entry): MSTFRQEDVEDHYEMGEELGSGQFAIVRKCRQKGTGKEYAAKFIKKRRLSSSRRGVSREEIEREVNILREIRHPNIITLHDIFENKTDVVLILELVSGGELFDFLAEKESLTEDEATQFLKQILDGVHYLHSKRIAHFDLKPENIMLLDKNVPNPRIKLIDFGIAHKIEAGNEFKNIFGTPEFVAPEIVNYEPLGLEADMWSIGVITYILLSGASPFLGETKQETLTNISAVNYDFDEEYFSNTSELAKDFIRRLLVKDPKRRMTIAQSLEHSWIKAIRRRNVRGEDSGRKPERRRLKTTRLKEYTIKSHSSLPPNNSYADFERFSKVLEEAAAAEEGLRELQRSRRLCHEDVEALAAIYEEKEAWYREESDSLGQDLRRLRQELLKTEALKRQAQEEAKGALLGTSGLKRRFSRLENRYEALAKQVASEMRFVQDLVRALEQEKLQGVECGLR
Chain of PRKCD (Q05655 whole entry): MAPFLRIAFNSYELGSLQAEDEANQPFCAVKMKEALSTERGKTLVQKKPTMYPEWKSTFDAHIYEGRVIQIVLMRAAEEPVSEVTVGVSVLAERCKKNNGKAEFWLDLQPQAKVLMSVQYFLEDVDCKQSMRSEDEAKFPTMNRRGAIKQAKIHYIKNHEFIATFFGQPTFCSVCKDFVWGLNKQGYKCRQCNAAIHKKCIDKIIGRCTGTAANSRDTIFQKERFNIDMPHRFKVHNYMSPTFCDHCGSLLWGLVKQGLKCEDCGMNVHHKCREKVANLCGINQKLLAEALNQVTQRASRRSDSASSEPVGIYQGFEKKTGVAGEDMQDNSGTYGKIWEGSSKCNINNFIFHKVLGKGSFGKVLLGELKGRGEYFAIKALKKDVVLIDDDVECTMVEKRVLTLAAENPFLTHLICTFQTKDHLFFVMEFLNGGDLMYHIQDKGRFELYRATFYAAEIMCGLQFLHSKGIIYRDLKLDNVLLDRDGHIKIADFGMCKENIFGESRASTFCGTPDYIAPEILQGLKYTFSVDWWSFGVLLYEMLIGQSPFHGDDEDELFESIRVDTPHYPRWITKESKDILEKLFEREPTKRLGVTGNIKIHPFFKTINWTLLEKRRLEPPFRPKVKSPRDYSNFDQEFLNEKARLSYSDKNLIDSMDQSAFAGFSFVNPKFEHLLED

`O=C(N=c1sccn1Cc1ccccc1)c1c[nH]c2ncccc12` [TRULI, N-(3-benzylthiazol-2(3H)-ylidene)-1H-pyrrolo[2,3-b]pyridine-3-carboxamide] gave an IC50 (NDR1) of 1000 nM, an IC50 (PKA) of 60 nM and an IC50 (PKCepsilon) of 14 nM. It also gave an IC50 (ROCK1 [1]) of 88 nM, an inhibition at 1 µM (DYRK1B) of 81.5% and an inhibition at 1 µM (BMP2K) of 86.3%. The inhibition at 1 µM (CDC42BPA) was 97.2%, the inhibition at 1 µM (CDC42BPG) was 83.7% and the inhibition at 1 µM (CDC7) was 99.1%. It also gave an inhibition at 1 µM (CDK19) of 90.2%, an inhibition at 1 µM (CDK8) of 88.8% and an inhibition at 1 µM (CLK1) of 78.1%. It also gave an inhibition at 1 µM (CLK2) of 92.8%, an inhibition at 1 µM (CLK4) of 102% and an inhibition at 1 µM (DAPK3) of 77.1%. The inhibition at 1 µM (DMPK) was 97.9%, the inhibition at 1 µM (DYRK1A) was 85.8% and the inhibition at 1 µM (GSK3B) was 92.7%. It also gave an inhibition at 1 µM (HIPK1) of 86.1%, an inhibition at 1 µM (HIPK2) of 94.2% and an inhibition at 1 µM (HIPK3) of 95.8%. The inhibition at 1 µM (LRRK2) was 81.3%, the inhibition at 1 µM (MAP3K7) was 74% and the inhibition at 1 µM (MAP4K4) was 77.5%. For the same molecule, the inhibition at 1 µM (PAK4) was 83.4%, the inhibition at 1 µM (PASK) was 85.8% and the inhibition at 1 µM (PKN1) was 77.7%. It also gave an inhibition at 1 µM (PKN2) of 89.7%, an inhibition at 1 µM (PRKACB) of 92.9% and an inhibition at 1 µM (PRKCD) of 78%. The inhibition at 1 µM (PRKCH) was 90.4%, the inhibition at 1 µM (PRKCQ) was 99.2% and the inhibition at 1 µM (PRKG2) was 79.1%. It also gave an inhibition at 1 µM (PRKX) of 88.1%, an inhibition at 1 µM (ROCK1 [2]) of 79.2% and an inhibition at 1 µM (ROCK2) of 84.1%. For the same molecule, the inhibition at 1 µM (TAOK1) was 76.4% and the inhibition at 1 µM (TGFBR2) was 81.3%.
